Measurements from patent US7759486B2, “2,4,5-Trisubstituted pyrimidine compounds” (GlaxoSmithKline LLC, priority 2000, dated 2010).

Row | Compound | melting point [°C]
1 | Cc1cc(F)ccc1-c1nc(N[C@H]2CC[C@H](O)CC2)nc2c1ccc(=O)n2-c1c(F)cccc1F [Example 155, trans-2-(4-Hydroxycyclohexylamino)-4-(4-fluoro-2-methylphenyl)-8-(2,6-difluorophenyl)-8H-pyrido[2,3-d]pyrimidin-7-one] | 158 to 160
2 | Cc1cc(F)ccc1-c1nc(N[C@@H](C)CO)nc2c1ccc(=O)n2-c1ccccc1F [Example 141, (S)-4-(4-fluoro-2-methylphenyl)-8-(2-fluorophenyl)-2-[(1-hydroxyprop-2-yl)amino]-8H-pyrido[2,3-d]pyrimidin-7-one] | 114 to 120
3 | CC(=O)NCCOc1nc(-c2ccc(F)cc2C)c2ccc(=O)n(-c3c(F)cccc3F)c2n1 [Example 132, 8-(2,6-Difluorophenyl)-4-(4-fluoro-2-methylphenyl)-2-(2-acetylaminoethoxy)-8H-pyrido[2,3-d]pyrimidin-7-one] | 75 to 79
4 | Cc1cc(F)ccc1-c1nc(NC2CCCCC2)nc2c1ccc(=O)n2-c1ccccc1F [Example 145, 2-Cyclohexylamino-4-(4-fluoro-2-methylphenyl)-8-(2-fluorophenyl)-5H-pyrido[2,3-d]pyrimidin-7-one] | 181 to 182
5 | Cc1cc(F)ccc1-c1nc(NCCNC(=O)OC(C)(C)C)nc2c1ccc(=O)n2-c1c(F)cccc1F [Example 167] | 106 to 119
6 | Cc1cc(F)ccc1-c1nc(NCCNC(=O)NC2CCCCC2)nc2c1ccc(=O)n2-c1c(F)cccc1F [Example 160, 1-[2-[8-(2,6-Difluorophenyl)-4-(4-fluoro-2-methylphenyl)-7-oxo-7,8-dihydro-pyrido[2,3-d]pyrimidin-2-ylamino]ethyl]-3-cyclohexylurea] | 178 to 183
7 | Cc1cc(F)ccc1-c1nc(NCC(F)(F)F)nc2c1ccc(=O)n2-c1ccccc1F [Example 150, 2-(2,2,2-Trifluoroethylamino)-4-(4-fluoro-2-methylphenyl)-8-(2-fluorophenyl)-8H-pyrido[2,3-d]pyrimidin-7-one] | 187 to 188
8 | Cc1cc(F)ccc1-c1nc(NC2CCCCC2)nc2c1ccc(=O)n2-c1c(F)cccc1F [Example 148, 2-Cyclohexylamino-4-(4-fluoro-2-methylphenyl)-8-(2,6-difluorophenyl)-8H-pyrido[2,3-d]pyrimidin-7-one] | 218 to 219
9 | Cc1cc(F)ccc1-c1nc(O)nc2c1ccc(=O)n2-c1ccccc1F (hydrate or solvate) [Example 144, 2-Hydroxy-4-(4-fluoro-2-methylphenyl)-8-(2-fluorophenyl)-8H-pyrido[2,3-d]pyrimidin-7-one] | > 280
10 | Cc1cc(F)ccc1-c1nc(NCC(=O)O)nc2c1ccc(=O)n2-c1c(F)cccc1F [Example 191, N-[8-(2,6-Difluorophenyl)-4-(4-fluoro-2-methylphenyl)-7,8-dihydro-7-oxopyrido[2,3-d]pyrimidin-2-yl]glycine] | 260 to 261
11 | Cc1cc(F)ccc1-c1nc(OCCCS(C)(=O)=O)nc2c1ccc(=O)n2-c1c(F)cccc1F [Example 128, 8-(2,6-Difluorophenyl)-4-(4-fluoro-2-methylphenyl)-2-(3-methanesulfonylpropoxy)-8H-pyrido[2,3-d]pyrimidin-7-one] | 160 to 162
12 | Cc1cc(F)ccc1-c1nc(OCC(CO)CO)nc2c1ccc(=O)n2-c1c(F)cccc1F [Example 133, 8-(2,6-Difluorophenyl)-4-(4-fluoro-2-methylphenyl)-2-(3-hydroxy-2-hydroxymethylpropoxy)-8H-pyrido[2,3-d]pyrimidin-7-one] | 77 to 81
13 | CSCCCOc1nc(-c2ccc(F)cc2C)c2ccc(=O)n(-c3c(F)cccc3F)c2n1 [Example 127, 8-(2,6-Difluorophenyl)-4-(4-fluoro-2-methylphenyl)-2-(3-methylsulfanylpropoxy)-8H-pyrido[2,3-d]pyrimidin-7-one] | 127 to 128
14 | Cc1cc(F)ccc1-c1nc(N[C@H]2CC[C@H](O)CC2)nc2c1ccc(=O)n2-c1ccccc1F [Example 151, trans-2-(4-Hydroxycyclohexylamino)-4-(4-fluoro-2-methylphenyl)-8-(2-fluorophenyl)-8H-pyrido[2,3-d]pyrimidin-7-one] | 148 to 151
15 | Cc1cc(F)ccc1-c1nc(OCCN(C)S(C)(=O)=O)nc2c1ccc(=O)n2-c1c(F)cccc1F [Example 135, 8-(2,6-Difluorophenyl)-4-(4-fluoro-2-methylphenyl)-2-(2-N-methanesulfonyl-N-methylaminoethoxy)-8H-pyrido[2,3-d]pyrimidin-7-one] | 89 to 92
16 | Cc1cc(F)ccc1-c1nc(N[C@@H](C)CO)nc2c1ccc(=O)n2-c1c(F)cccc1F [Example 137, (S)-4-(4-fluoro-2-methylphenyl)-8-(2,6-difluorophenyl)-2-[(1-hydroxyprop-2-yl)amino]-8H-pyrido[2,3-d]pyrimidin-7-one] | 96 to 101
17 | Cc1cc(F)ccc1-c1nc(NC2CCOCC2)nc2c1ccc(=O)n2-c1c(F)cccc1F [Example 149, 2-(Tetrahydropyran-4-ylamino)-4-(4-fluoro-2-methylphenyl)-8-(2,6-difluorophenyl)-8H-pyrido[2,3-d]pyrimidin-7-one] | 231 to 232
18 | Cc1cc(F)ccc1-c1nc(OCCNC(=O)OC(C)(C)C)nc2c1ccc(=O)n2-c1c(F)cccc1F [Example 130, 8-(2,6-Difluorophenyl)-4-(4-fluoro-2-methylphenyl)-2-[2-(tert-butoxycarbonylamino)ethoxy]-8H-pyrido[2,3-d]pyrimidin-7-one] | 103 to 105
19 | Cc1cc(F)ccc1-c1nc(Nc2c[nH]c(=O)[nH]c2=O)nc2c1ccc(=O)n2-c1c(F)cccc1F [Example 168, 8-(2,6-Difluorophenyl)-4-(4-fluoro-2-methylphenyl)-2-(N-aminouracil-5-yl)-8H-pyrido[2,3-d]pyrimidin-7-one] | > 300
20 | Cc1cc(F)ccc1-c1nc(OCCNS(C)(=O)=O)nc2c1ccc(=O)n2-c1c(F)cccc1F [Example 134, 8-(2,6-Difluorophenyl)-4-(4-fluoro-2-methylphenyl)-2-(2-methanesulfonyl-aminoethoxy)-8H-pyrido[2,3-d]pyrimidin-7-one] | 95 to 99
21 | CCC(=O)NCCNc1nc(-c2ccc(F)cc2C)c2ccc(=O)n(-c3c(F)cccc3F)c2n1 [Example 165] | 214 to 216
22 | CCNc1nc(-c2ccc(F)cc2C)c2ccc(=O)n(-c3c(F)cccc3F)c2n1 [Example 147, 2-Ethylamino-4-(4-fluoro-2-methylphenyl)-8-(2,6-difluorophenyl)-8H-pyrido[2,3-d]pyrimidin-7-one] | 195 to 196
23 | CCNC(=O)NCCNc1nc(-c2ccc(F)cc2C)c2ccc(=O)n(-c3c(F)cccc3F)c2n1 [Example 158, 1-[2-[8-(2,6-Difluorophenyl)-4-(4-fluoro-2-methylphenyl)-7-oxo-7,8-dihydro-pyrido[2,3-d]pyrimidin-2-ylamino]ethyl]-3-ethylurea] | 130 to 133
24 | Cc1cc(F)ccc1-c1nc(N[C@H](C)CO)nc2c1ccc(=O)n2-c1c(F)cccc1F [Example 138, (R)-4-(4-fluoro-2-methylphenyl)-8-(2,6-difluorophenyl)-2-[(1-hydroxyprop-2-yl)amino]-8H-pyrido[2,3-d]pyrimidin-7-one] | 90 to 95
